This passage reports melting point results from patent US20110301370A1, “METHOD FOR PREPARING OREGANIC ACID” (CONSEJO SUPERIOR DE INVESTIGACIONES CIENTÍFICAS, priority 2008, published 2011).

Usually melting point stands for the temperature, or range, at which the solid turns liquid. As to `O=C(O)C/C(C(=O)O)=C(\CCCCCCCCCCCCCCCCOS(=O)(=O)O)C(=O)O` [1-Z, (Z)-3,4-dicarboxy-20-sulfooxy-3-eicosenoic acid], the melting point lay within 63 to 65 °C.
